The values below come from US8349850B2, “Heterocyclic compounds and uses thereof in the treatment of sexual disorders” (ATIR Holding S.A., priority 2006, dated 2013).

Experiment [1] has as its target T1, PDE5 partially purified from human platelets (Homo sapiens, UniProt O76074).
T1 construct: PDE5 partially purified from human platelets was used; from tissue; host or cells: human platelets
Description: Phosphodiesterase Type 5 (PDE5) Inhibition. It counts as biochemical. The conditions noted are these: for inhibition at 50 µM: 50 mcM compound, 1 μM cGMP; for PDE5 IC50, 10^−6 M / IC50: 'active' = observed activity not quantitated; for IC50: read-out: PDE5 IC50, 10^−6 M. The method, then:
Phosphodiesterase type 5 (PDE5) catalyzes the conversion of cAMP or cGMP to their respective monophosphate forms. PDE5 has a high Km for cAMP and a low Km for cGMP, is insensitive to Ca^2+/calmodulin or cGMP regulation, and is relatively sensitive to inhibitors such as dipyridamol and zaprinast.
PDE5 partially purified from human platelets was used. The tested compound (at a concentration of 0.1, 1, 20 or 50 μM) and/or vehicle was incubated with 3.5 μg enzyme and 1 μM cGMP containing 0.01 μM [^3H]cGMP in Tris buffer pH 7.5 for 20 minutes at 30° C. Since enzyme activity may change from lot to lot, the concentration used was adjusted if required.
The reaction was terminated by boiling the reaction mixture for 2 minutes. The obtained GMP was then converted to guanosine by addition of 10 mg/ml snake venom nucleotidase and further incubation at 30° C. for 10 minutes. Unhydrolyzed cGMP was bound to AG1-X2 resin, and remaining [^3H]Guanosine in the aqueous phase was quantitated by scintillation counting.

For the next experiment, the target named is T2, D4.4 receptor (Homo sapiens, UniProt P21917).
T2 construct: expressed in transfected cells; host or cells: CHO cells
T2 sequence (P21917 1-419): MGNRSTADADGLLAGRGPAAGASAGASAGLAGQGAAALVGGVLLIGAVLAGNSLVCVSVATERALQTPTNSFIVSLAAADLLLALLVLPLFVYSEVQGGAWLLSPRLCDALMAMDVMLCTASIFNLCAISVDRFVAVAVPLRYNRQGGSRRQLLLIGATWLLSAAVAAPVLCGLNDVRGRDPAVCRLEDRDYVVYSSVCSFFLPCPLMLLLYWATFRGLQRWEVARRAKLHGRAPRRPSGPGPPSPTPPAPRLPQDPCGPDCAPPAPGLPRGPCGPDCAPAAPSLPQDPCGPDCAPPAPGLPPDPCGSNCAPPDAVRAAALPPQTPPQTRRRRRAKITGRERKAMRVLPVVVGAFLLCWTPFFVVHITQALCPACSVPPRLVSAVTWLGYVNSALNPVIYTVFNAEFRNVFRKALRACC
Put plainly: Competitive binding to D4.4 dopamine receptor ([3H]-YM-09151-2 radioligand). The following applies: 5 mcM compound; human recombinant D4.4 in CHO cells; na = no activity. The method, then: Compounds were assayed for competitive binding to D2 SHORT and D4.4 type dopamine receptors. Both receptor types are expressed as human recombinant proteins in CHO cells, as described, for example, in Jarvis et al. (1973); Van Tol et al. (1991) and Van Tol et al. (1992).
Determination of binding to D4.4 receptor was performed using [^3H]-YM-09151-2 (70-87 Ci/mmol, 0.3 nM), as a radioligand, in with the presence of various concentrations of the tested compound. Reactions were carried out in 50 mM TRIS-HCl (pH 7.4) containing 5 mM MgCl2, 5 mM EDTA, 5 mM KCl and 1.5 mM CaCl2, for 60 minutes at 22° C. The reaction was terminated by rapid vacuum filtration onto glass fiber filters. Radioactivity trapped onto the filters was determined (counted) and compared to control values in order to accurately evaluate any interaction of the tested compound(s) with the cloned dopamine D4.4 binding site.

Regarding `O=c1[nH]c(CN2CCN(c3ccccn3)CC2)nc2ccccc12` [Compound 102, 2-[(4-pyridin-2-ylpiperazin-1-yl)methyl]quinazolin-4(3H)-one], in experiment [1], the inhibition (usually how much of the control response was suppressed) at 50 µM was determined as 29% and the “PDE5 IC50, 10^−6 M” value is on record as “active”. Turning to `O=c1[nH]c(CN2CC=C(c3ccccn3)CC2)nc2ccccc12` [Compound 115, 2-(3′,6′-dihydro-2,4′-bipyridin-1′(2′H)-ylmethyl)quinazolin-4(3H)-one], at D4.4 receptor, the inhibition at 5 µM was found to be 66%.

`O=c1[nH]c(CN2CCN(c3ncccn3)CC2)nc2ccccc12` [Compound 123, 2-[(4-pyrimidin-2-ylpiperazin-1-yl)methyl]quinazolin-4(3H)-one]: in experiment [1], the inhibition at 50 µM was 61% and the IC50 (in general, the concentration needed to halve the response being measured) was 26 µM. The inhibition at 5 µM at D4.4 receptor is 13%. For `O=c1[nH]c(CN2CCN(c3ncccn3)CC2)nc2nc[nH]c12` [Compound 408, 2-((4-(pyrimidin-2-yl)piperazin-1-yl)methyl)-1H-purin-6(7H)-one], in experiment [1], at 50 µM the inhibition was 32% and the “PDE5 IC50, 10^−6 M” value is “active”. Also, the inhibition at 5 µM on D4.4 receptor amounted to 33%. For `O=c1[nH]c(CN2CCN(c3ccccn3)CC2)nc2nc[nH]c12` [Compound 409, 2-((4-(pyridin-2-yl)piperazin-1-yl)methyl)-1H-purin-6(7H)-one] the same measures were 24%, “active” and 8%. Regarding `O=c1[nH]c(CN2CCN(c3cccc(O)c3)CC2)nc2cc(Cl)ccc12` [Compound B-3], the “D4.4(h) Competitive Binding, % at 5 mcM” value on D4.4 receptor was 82%. In the case of `COc1cc2nc(CN3CCN(c4cccc(O)c4)CC3)[nH]c(=O)c2cc1OC` [Compound B-4, 2-((4-(3-hydroxyphenyl)piperazin-1-yl)methyl)-6,7-dimethoxyquinazolin-4(3H)-one], in experiment [1], the inhibition at 50 µM is 25% and the “PDE5 IC50, 10^−6 M” value is “active”. Moreover, the inhibition at 5 µM at D4.4 receptor was 91%. Taken in the same sequence, the figures for `O=c1[nH]c(CN2CCN(c3cccc(O)c3)CC2)nc2cc(Cl)ccc12` [Compound B-8, 7-chloro-2-((4-(3-hydroxyphenyl)piperazin-1-yl)methyl)quinazolin-4(3H)-one] were 28%, “active” and 90%. As to `Cc1cccc2nc(CN3CCN(c4cccc(O)c4)CC3)[nH]c(=O)c12` [Compound B-9, 2-((4-(3-hydroxyphenyl)piperazin-1-yl)methyl)-5-methylquinazolin-4(3H)-one], in experiment [1], testing at 50 µM gave an inhibition of 47% and the “PDE5 IC50, 10^−6 M” value is reported as “active”. In addition, the inhibition at 5 µM at D4.4 receptor amounted to 89%. On to `O=c1[nH]c(CN2CCN(c3ncccc3OCc3ccccc3)CC2)nc2ccccc12` [Compound B-10, 2-((4-(3-(benzyloxy)pyridin-2-yl)piperazin-1-yl)methyl)quinazolin-4(3H)-one], for which, in experiment [1], the inhibition at 50 µM is 40% and the “PDE5 IC50, 10^−6 M” value is listed as “active”. Further, at D4.4 receptor, the inhibition at 5 µM turned out to be 60%. Turning to `O=c1[nH]c(CN2CCN(c3nccs3)CC2)nc2ccccc12` [Compound B-11, 2-((4-(thiazol-2-yl)piperazin-1-yl)methyl)quinazolin-4(3H)-one], in experiment [1], testing at 50 µM gave an inhibition of 68% and the IC50 is 2 µM. The inhibition at 5 µM on D4.4 receptor turned out to be 18%. As for `CCOc1cccnc1N1CCN(Cc2nc3ccccc3c(=O)[nH]2)CC1` [Compound B-13, 2-((4-(3-ethoxypyridin-2-yl)piperazin-1-yl)methyl)quinazolin-4(3H)-one], the inhibition at 5 µM on D4.4 receptor was found to be 86%. Still for that read-out and setting: the value for `COc1ccccc1C1=CCN(Cc2nc3ccccc3c(=O)[nH]2)CC1` [Compound B-31, 2-((5,6-dihydro-4-(2-methoxyphenyl)pyridin-1(2H)-yl)methyl)quinazolin-4(3H)-one] was 74%; that for `N#Cc1ccccc1N1CCN(Cc2nc3ccccc3[nH]c2=O)CC1` [Compound B-34, 2-(4-((1,2-dihydro-2-oxoquinoxalin-3-yl)methyl)piperazin-1-yl)benzonitrile] was 84%; that for `O=c1[nH]c(CN2CCN(c3cccc(O)c3)CC2)nc2cccc(F)c12` [Compound B-36, 5-fluoro-2-((4-(3-hydroxyphenyl)piperazin-1-yl)methyl)quinazolin-4(3H)-one] was 82%. Take `O=c1[nH]c2ccccc2nc1CN1CCN(c2cccc(O)c2)CC1` [Compound B-37, 3-((4-(3-hydroxyphenyl)piperazin-1-yl)methyl)quinoxalin-2(1H)-one]: the inhibition at 5 µM at D4.4 receptor amounted to 62%. The same measure, in the same setting: the value for `COc1ccccc1N1CCN(Cc2nc3cc(Cl)ccc3c(=O)[nH]2)CC1` [Compound B-38, 7-chloro-2-((4-(2-methoxyphenyl)piperazin-1-yl)methyl)quinazolin-4(3H)-one] was 65%; that for `COc1ccccc1C1=CCN(Cc2nc3cc(Cl)ccc3c(=O)[nH]2)CC1` [Compound B-39, 7-chloro-2-((5,6-dihydro-4-(2-methoxyphenyl)pyridin-1(2H)-yl)methyl)quinazolin-4(3H)-one] was 95%; that for `O=c1[nH]c2ccccc2nc1CN1CC=C(c2ccccc2)CC1` [Compound B-42, 3-((5,6-dihydro-4-phenylpyridin-1(2H)-yl)methyl)quinoxalin-2(1H)-one] was 62%. Regarding `CCOc1cccnc1N1CCN(Cc2nc3cc(Cl)ccc3c(=O)[nH]2)CC1` [Compound B-43, 7-chloro-2-((4-(3-ethoxypyridin-2-yl)piperazin-1-yl)methyl)quinazolin-4(3H)-one], in experiment [1], at 50 µM the inhibition was 26% and the “PDE5 IC50, 10^−6 M” value is given as “active”. Take `O=c1[nH]c2ccccc2nc1CN1CCN(c2ncccn2)CC1` [Compound B-44, 3-((4-(pyrimidin-2-yl)piperazin-1-yl)methyl)quinoxalin-2(1H)-one]: the inhibition at 5 µM on D4.4 receptor amounted to 29%. Still for that read-out and setting: the value for `CCOc1ccccc1N1CCN(Cc2nc3cc(Cl)ccc3c(=O)[nH]2)CC1` [Compound B-45, 7-chloro-2-((4-(2-ethoxyphenyl)piperazin-1-yl)methyl)quinazolin-4(3H)-one] was 46%; that for `O=c1[nH]c(CN2CC=C(c3ccccc3)CC2)nc2cc(Cl)ccc12` [Compound B-47, 7-chloro-2-((5,6-dihydro-4-phenylpyridin-1(2H)-yl)methyl)quinazolin-4(3H)-one] was 63%; that for `O=c1[nH]c(CN2CCC(c3ccccc3)CC2)nc2ccccc12` [Compound B-51, 2-((4-phenylpiperidin-1-yl)methyl)quinazolin-4(3H)-one] was 88%. As to `O=c1[nH]c(CN2CC=C(c3ccccn3)CC2)nc2cc(Cl)ccc12` [Compound B-71, 7-chloro-2-((5,6-dihydro-4-(pyridin-2-yl)pyridin-1(2H)-yl)methyl)quinazolin-4(3H)-one], in experiment [1], the inhibition at 50 µM worked out at 63% and the IC50 amounted to 27 µM. Taken in the same sequence, the figures for `O=c1c2ccccc2nc(CN2CCN(c3ncccn3)CC2)n1Cc1ccccc1` [Compound B-75, 3-benzyl-2-((4-(pyrimidin-2-yl)piperazin-1-yl)methyl)quinazolin-4(3H)-one] were 73% and 21 µM.

Regarding `O=c1[nH]c(CN2CCCC(c3ccccn3)C2)nc2ccccc12` (stereo not shown) [Compound B-83, 2-((3-(pyridin-2-yl)piperidin-1-yl)methyl)quinazolin-4(3H)-one], on D4.4 receptor, the inhibition at 5 µM is 57%.

For the molecule `CCn1c(=O)c2[nH]c(CN3CCN(c4cccc(O)c4)CC3)nc2n(CC)c1=O` [Xan1, 1,3-diethyl-8-((4-(3-hydroxyphenyl)piperazin-1-yl)methyl)-1H-purine-2,6(3H,7H)-dione], the inhibition at 5 µM on D4.4 receptor worked out at 54%. The same measure, in the same setting: the value for `CCn1c(=O)c2[nH]c(CN3CC=C(c4ccccc4)CC3)nc2n(CC)c1=O` [Xan2] was 25%.
